Assay results published in patent US20240025883A1, “PYRIMIDIN-2-YL SULFONAMIDE DERIVATIVES” (Hoffmann-La Roche Inc., priority 2021, published 2024).
pIC50: −log10 of the molar value.

Target: human GPR17 short isoform (Homo sapiens (Human), UniProt Q13304)
Test: GPR17 cAMP assay (hGPR17 cAMP, antagonist mode against EC80 of MDL29,951)
Type: cell-based
Details: CHO-K1 cells stably expressing human GPR17 short isoform; EC80 of agonist MDL29,951; forskolin 15 μM
Protocol: GPR17 cAMP Assay Protocol:
CHO-K1 cells stably expressing vector containing untagged human GPR17 short isoform (Roche) were cultured at 37° C./5% CO2 in DMEM (Dulbecco's Modified Eagle Medium):F-12 (1:1) supplemented with 10% foetal bovine serum and 400 μg/ml Geneticin.
Changes in intracellular cyclic adenosine monophosphate (cAMP) levels were quantified using the Nano-TRF Detection Assay kit (Roche Diagnostics, Cat. No. 05214386001). This assay allows for direct cAMP quantification in a homogeneous solution, cAMP is detected based on time-resolved fluorescence energy transfer (TR-FRET) and competitive binding of ruthenylated cAMP and endogenous cAMP to an anti-cAMP monoclonal antibody labeled with AlexaFluor-700. The Ruthenium complex serves as the FRET donor and transfers energy to AlexaFluor-700. The FRET signal is inversely proportional to the cAMP concentration.
CHO-GPR17S cells were detached with Accutase and resuspended in assay buffer consisting of Hank's Balanced Salt Solution (HBSS), 10 mM HEPES (4-(2-hydroxyethyl) piperazine-1-ethanesulfonic acid solution) and 0.1% bovine serum albumin (pH 7.4). The cells were seeded in black 384-well plates (Corning) at a density of 10,000 cells/20 μl assay buffer until the addition of compounds.
Test antagonist compounds were serially diluted in dimethyl sulfoxide (DMSO) and spotted in 384-well plates. The compounds were then diluted in HBSS buffer supplemented with an EC80 concentration of MDL29,951 (3-(2-Carboxy-4,6-dichloroindol-3-yl)propionic acid) (GPR17 agonist) plus 3-Isobutyl-1-methylxanthine (IBMX) (0.5 mM final concentration) and added to the cells at room temperature. Forskolin (15 μM final concentration) was added 5 minutes after the test compounds and the cells were incubated at room temperature for 30 minutes. The assay was stopped by adding cAMP detection mix (containing detergents for cell lysis) for 90 minutes at room temperature.
Cellular cAMP was measured using a Paradigm reader (Molecular Devices). The raw data was used to calculate the FRET signal based on the assay's P-factor as per cAMP kit instructions. The data was normalized to the maximal activity of a reference antagonist and dose response curves were fitted to the percent activity of the test compounds using a sigmoidal dose response model (Genedata Screener).

Chain of human GPR17 short isoform (Q13304 29-367): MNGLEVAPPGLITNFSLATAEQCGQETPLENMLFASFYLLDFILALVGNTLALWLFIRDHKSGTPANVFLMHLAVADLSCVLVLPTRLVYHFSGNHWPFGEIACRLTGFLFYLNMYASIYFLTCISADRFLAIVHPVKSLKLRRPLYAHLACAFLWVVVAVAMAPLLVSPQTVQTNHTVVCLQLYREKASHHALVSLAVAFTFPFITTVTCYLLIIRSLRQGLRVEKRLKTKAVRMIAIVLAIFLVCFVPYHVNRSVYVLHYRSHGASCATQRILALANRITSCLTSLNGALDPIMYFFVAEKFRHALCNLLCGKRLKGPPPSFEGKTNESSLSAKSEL

| pIC50 | Compound |
| --- | --- |
| 6.82 | COc1nc(NS(=O)(=O)c2csc3nc(Br)ccc23)ncc1OCC(F)F [Example 145, 6-bromo-N-[5-(2,2-difluoroethoxy)-4-methoxy-pyrimidin-2-yl]thieno[2,3-b]pyridine-3-sulfonamide] |
| 6.24 | Cc1nc(NS(=O)(=O)c2c[nH]c3cc(Cl)ccc23)nc(C)c1Br [Example 33, N-(5-bromo-4,6-dimethyl-pyrimidin-2-yl)-6-chloro-1H-indole-3-sulfonamide] |
| 7.05 | COc1nc(NS(=O)(=O)c2c[nH]c3cc(Cl)c(F)cc23)ncc1CC(F)F [Example 185, 6-chloro-N-[5-(2,2-difluoroethyl)-4-methoxy-pyrimidin-2-yl]-5-fluoro-1H-indole-3-sulfonamide] |
| 8.10 | COc1nc(NS(=O)(=O)c2c[nH]c3cc(Cl)ccc23)nc(OC)c1CC(F)F [Example 60, 6-chloro-N-[5-(2,2-difluoroethyl)-4,6-dimethoxy-pyrimidin-2-yl]-1H-indole-3-sulfonamide] |
| 6.19 | COc1nc(NS(=O)(=O)c2c[nH]c3cc(Cl)ccc23)ncc1C1CC1 [Example 28, 6-chloro-n-(5-cyclopropyl-4-methoxy-pyrimidin-2-yl)-1h-indole-3-sulfonamide] |
| 6.74 | COc1nc(NS(=O)(=O)c2c[nH]c3cc(Cl)ccc23)ncc1OC(F)F [Example 8, 6-chloro-N-[5-(difluoromethoxy)-4-methoxy-pyrimidin-2-yl]-1H-indole-3-sulfonamide] |
| 6.97 | COc1nc(NS(=O)(=O)c2c[nH]c3cc(C(F)(F)F)ccc23)ncc1CC(F)F [Example 190, N-[5-(2,2-difluoroethyl)-4-methoxy-pyrimidin-2-yl]-6-(trifluoromethyl)-1H-indole-3-sulfonamide] |
| 7.12 | COc1nc(NS(=O)(=O)c2c[nH]c3nc(C(F)F)ccc23)nc(OC)c1OC(F)F [Example 94, N-[5-(difluoromethoxy)-4,6-dimethoxy-pyrimidin-2-yl]-6-(difluoromethyl)-1H-pyrrolo[2,3-b]pyridine-3-sulfonamide] |
| 6.66 | COc1nc(NS(=O)(=O)c2csc3cc(C)ccc23)ncc1OCCF [Example 159, N-[5-(2-fluoroethoxy)-4-methoxy-pyrimidin-2-yl]-6-methyl-benzothiophene-3-sulfonamide] |
| 5.55 | COc1nc(NS(=O)(=O)c2c[nH]c3cc(Cl)ccc23)ncc1C1COC1 [Example 50, 6-chloro-N-[4-methoxy-5-(oxetan-3-yl)pyrimidin-2-yl]-1H-indole-3-sulfonamide] |
| 6.97 | COc1nc(NS(=O)(=O)c2c[nH]c3cc(Cl)ccc23)ncc1CCC(F)(F)F [Example 178, 6-chloro-N-[4-methoxy-5-(3,3,3-trifluoropropyl)pyrimidin-2-yl]-1H-indole-3-sulfonamide] |
| 6.35 | CCc1nc(NS(=O)(=O)c2c[nH]c3cc(Cl)ccc23)nc(OC)c1C [Example 137, 6-chloro-N-(4-ethyl-6-methoxy-5-methyl-pyrimidin-2-yl)-1H-indole-3-sulfonamide] |
| 7.64 | COc1nc(NS(=O)(=O)c2c[nH]c3cc(Cl)ccc23)nc(OC)c1CC(F)CF (stereo not shown) [Example 264, 6-chloro-N-[5-(2,3-difluoropropyl)-4,6-dimethoxy-pyrimidin-2-yl]-1H-indole-3-sulfonamide] |
| 7.55 | COc1nc(NS(=O)(=O)c2c[nH]c3c(F)c(Cl)ccc23)ncc1OC(F)(F)CF [Example 215, 6-chloro-7-fluoro-N-[4-methoxy-5-(1,1,2-trifluoroethoxy)pyrimidin-2-yl]-1H-indole-3-sulfonamide] |
| 6.88 | CCc1cnc(NS(=O)(=O)c2c[nH]c3cc(Cl)ccc23)nc1OC [Example 15, 6-chloro-N-(5-ethyl-4-methoxy-pyrimidin-2-yl)-1H-indole-3-sulfonamide] |
| 6.63 | COc1nc(NS(=O)(=O)c2c[nH]c3cc(Cl)ccc23)nc(OC)c1C#N [Example 32, 6-chloro-N-(5-cyano-4,6-dimethoxy-pyrimidin-2-yl)-1H-indole-3-sulfonamide] |
| 7.44 | COc1nc(NS(=O)(=O)c2c[nH]c3c(F)c(Cl)ccc23)ncc1OCCF [Example 2, 6-chloro-7-fluoro-N-[5-(2-fluoroethoxy)-4-methoxy-pyrimidin-2-yl]-1H-indole-3-sulfonamide] |

| pIC50 | Compound |
| --- | --- |
| 7.19 | COc1nc(NS(=O)(=O)c2c[nH]c3nc(Cl)ccc23)nc(OC)c1OCCF [Example 221, 6-chloro-N-[5-(2-fluoroethoxy)-4,6-dimethoxy-pyrimidin-2-yl]-1H-pyrrolo[2,3-b]pyridine-3-sulfonamide] |
| 7.41 | COc1nc(NS(=O)(=O)c2csc3nc(Br)ccc23)nc(OC)c1CC(F)F [Example 150, 6-bromo-N-[5-(2,2-difluoroethyl)-4,6-dimethoxy-pyrimidin-2-yl]thieno[2,3-b]pyridine-3-sulfonamide] |
| 7.40 | COc1nc(NS(=O)(=O)c2c[nH]c3nc(Cl)ccc23)nc(OC)c1CC(F)F [Example 120, 6-chloro-N-[5-(2,2-difluoroethyl)-4,6-dimethoxy-pyrimidin-2-yl]-1H-pyrrolo[2,3-b]pyridine-3-sulfonamide] |
| 6.67 | COc1nc(NS(=O)(=O)c2csc3c(F)c(Cl)ccc23)ncc1CCC#N [Example 163, 6-chloro-N-[5-(2-cyanoethyl)-4-methoxy-pyrimidin-2-yl]-7-fluoro-benzothiophene-3-sulfonamide] |
| 7.47 | COc1nc(NS(=O)(=O)c2c[nH]c3c(C(F)F)c(Cl)ccc23)ncc1OCCF [Example 4, 6-chloro-7-(difluoromethyl)-N-[5-(2-fluoroethoxy)-4-methoxy-pyrimidin-2-yl]-1H-indole-3-sulfonamide] |
| 6.40 | COc1nc(NS(=O)(=O)c2c[nH]c3cc(Cl)ccc23)nc(C)c1OCC(F)F [Example 20, 6-chloro-N-[5-(2,2-difluoroethoxy)-4-methoxy-6-methyl-pyrimidin-2-yl]-1H-indole-3-sulfonamide] |
| 7.49 | COc1nc(NS(=O)(=O)c2c[nH]c3cc(C(F)F)ccc23)ncc1OCCF [Example 235, 6-(difluoromethyl)-N-[5-(2-fluoroethoxy)-4-methoxy-pyrimidin-2-yl]-1H-indole-3-sulfonamide] |
| 7.12 | COc1nc(NS(=O)(=O)c2c[nH]c3cc(C4CC4)ccc23)ncc1CC(F)F [Example 254, 6-cyclopropyl-N-[5-(2,2-difluoroethyl)-4-methoxy-pyrimidin-2-yl]-1H-indole-3-sulfonamide] |
| 6.89 | COc1ccc2c(S(=O)(=O)Nc3nc(OC)c(C)c(OC)n3)c[nH]c2c1 [Example 273, N-(4,6-dimethoxy-5-methyl-pyrimidin-2-yl)-6-methoxy-1h-indole-3-sulfonamide] |
| 6.78 | COc1nc(NS(=O)(=O)c2csc3cc(Br)ccc23)ncc1OC(F)F [Example 268, 6-bromo-N-[5-(difluoromethoxy)-4-methoxy-pyrimidin-2-yl]benzothiophene-3-Sulfonamide] |
| 7.24 | COc1nc(NS(=O)(=O)c2c[nH]c3nc(Cl)ccc23)nc(OC)c1OCC(F)F [Example 206, 6-chloro-N-[5-(2,2-difluoroethoxy)-4,6-dimethoxy-pyrimidin-2-yl]-1H-pyrrolo[2,3-b]pyridine-3-sulfonamide] |
| 6.13 | COc1nc(NS(=O)(=O)c2c[nH]c3cc(Cl)ccc23)ncc1C(C)(F)F [Example 136, 6-chloro-N-[5-(1,1-difluoroethyl)-4-methoxy-pyrimidin-2-yl]-1H-indole-3-sulfonamide] |
| 6.04 | O=S(=O)(Nc1ncc(OCC(F)F)c(Cl)n1)c1c[nH]c2cc(Cl)ccc12 [Example 76, 6-chloro-N-[4-chloro-5-(2,2-difluoroethoxy)pyrimidin-2-yl]-1H-indole-3-sulfonamide] |
| 6.98 | COc1nc(NS(=O)(=O)c2csc3nc(Br)ccc23)ncc1OC(F)(F)CF [Example 147, 6-bromo-N-[4-methoxy-5-(1,1,2-trifluoroethoxy)pyrimidin-2-yl]thieno[2,3-b]pyridine-3-sulfonamide] |
| 5.24 | COCc1nc(NS(=O)(=O)c2c[nH]c3cc(Cl)ccc23)nc(OC)c1Br [Example 81, N-[5-bromo-4-methoxy-6-(methoxymethyl)pyrimidin-2-yl]-6-chloro-1H-indole-3-sulfonamide] |
| 7.85 | COc1nc(NS(=O)(=O)c2c[nH]c3c(Br)c(Cl)ccc23)ncc1OCCF [Example 141, 7-bromo-6-chloro-N-[5-(2-fluoroethoxy)-4-methoxy-pyrimidin-2-yl]-1H-indole-3-sulfonamide] |
| 7.31 | COc1nc(NS(=O)(=O)c2c[nH]c3cc(Cl)ccc23)ncc1OCC#N [Example 267, 6-chloro-N-[5-(cyanomethoxy)-4-methoxy-pyrimidin-2-yl]-1H-indole-3-sulfonamide] |
